Columns and labels:
Experiment in all cases: MIC, CLSI broth microdilution
Type in all cases: cell-based
[1] = test system: S. pneumoniae ASPN1027 (Fluoroquinolone-resistant)
In short: (§1)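 CLSI M7-A7 broth microdilution; 2-fold serial dilutions in Mueller Hinton Broth, 1:1 with inoculum; final 5×10^5 CFU/mL; 35° C., 20 h, ambient air. QC strains E. coli ATCC 25922, P. aeruginosa ATCC 27853, S. aureus ATCC 29213.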

[2] = test system: S. pneumoniae ASPN001 (Fluoroquinolone-susceptible, ATCC49619)
In short: as §1

[3] = test system: P. aeruginosa APAE001 (Fluoroquinolone-susceptible, ATCC27853)
In short: as §1

[4] = test system: S. aureus ASAU002 (Fluoroquinolone-susceptible, ATCC33591 (MRSA)); details: Table 3
In short: as §1

[5] = test system: S. aureus ASAU001 (Fluoroquinolone-susceptible, ATCC29213)
In short: as §1

[6] = test system: E. coli AECO001 (Fluoroquinolone susceptible, ATCC25922)
In short: as §1

[7] = test system: P. aeruginosa APAE002 (Fluoroquinolone susceptible); details: Table 3
In short: as §1

[8] = test system: A. baumannii AABA1009 (Fluoroquinolone-resistant); details: Table 2
In short: as §1

[9] = test system: S. pneumoniae ASPN002 (Fluoroquinolone-susceptible, ATCC10813); details: Table 3
In short: as §1

[10] = test system: E. coli AECO086 (Fluoroquinolone-resistant); details: Table 3
In short: as §1

[11] = test system: A. baumannii AABA1020 (Fluoroquinolone-resistant); details: Table 3
In short: as §1

[12] = test system: E. coli AECO002 (Fluoroquinolone susceptible); details: Table 3
In short: as §1

[13] = test system: A. baumannii AABA1065 (Fluoroquinolone-susceptible)
In short: as §1

[14] = test system: P. aeruginosa APAE054 (Fluoroquinolone-resistant)
In short: as §1

[15] = test system: S. aureus ASAU1033 (Fluoroquinolone-resistant); details: Table 3
In short: as §1

[16] = test system: E. coli AECO066 (Fluoroquinolone-resistant)
In short: as §1

[17] = test system: S. pneumoniae ASPN1018 (Fluoroquinolone-resistant); details: Table 3
In short: as §1

[18] = test system: S. aureus ASAU1031 (Fluoroquinolone-resistant)
In short: as §1

| SMILES | MIC ASPN 1027 ([1]; Table 2) | MIC ASPN 1027 ([1]; Table 3) | MIC ASPN 001 ([2]; Table 2) | MIC ASPN 001 ([2]; Table 3) | MIC APAE 001 ([3]; Table 2) | MIC APAE 001 ([3]; Table 3) | MIC ASAU002 [4] | MIC ASAU 001 ([5]; Table 2) | MIC ASAU 001 ([5]; Table 3) | MIC AECO 001 ([6]; Table 2, 35° C., 20 hours) | MIC AECO 001 ([6]; Table 3) | MIC APAE002 [7] | MIC AABA 1009 [8] | MIC ASPN002 [9] | MIC AECO086 [10] | MIC AABA1020 [11] | MIC AECO002 [12] | MIC AABA 1065 ([13]; Table 2) | MIC AABA 1065 ([13]; Table 3) | MIC APAE 054 ([14]; Table 2) | other results |
| --- | --- | --- | --- | --- | --- | --- | --- | --- | --- | --- | --- | --- | --- | --- | --- | --- | --- | --- | --- | --- | --- |
| N[C@@H]1C[C@H]2CC=Cc3c(c(F)cc4c(=O)c(C(=O)O)cn(C5CC5)c34)N2C1.O=C(O)C(F)(F)F [7D/40, (7aR,9R)-9-Amino-4-cyclopropyl-12-fluoro-1-oxo-4,7,7a,8,9,10-hexahydro-1H-pyrrolo[1′,2′:1,7]-azepino[2,3-h]quinoline-2-carboxylic acid trifluoroacetate] | C (MIC's of greater than 8.0 μg/mL = C) | D (MIC's of greater than 8.0 μg/mL = D) | B (MIC's of greater than 1.0 μg/mL to 8.0 μg/mL = B) | B (MIC's of 1.0 μg/mL to 2.0 μg/mL = B) | B (MIC's of greater than 1.0 μg/mL to 8.0 μg/mL = B) | B (MIC's of 1.0 μg/mL to 2.0 μg/mL = B) | A (MIC's of less than 1.0 = A) | A (MIC's of 1.0 μg/mL or less = A) | A (MIC's of less than 1.0 = A) | A (MIC's of 1.0 μg/mL or less = A) | A (MIC's of less than 1.0 = A) | B (MIC's of 1.0 μg/mL to 2.0 μg/mL = B) | C (MIC's of greater than 8.0 μg/mL = C) | B (MIC's of 1.0 μg/mL to 2.0 μg/mL = B) | D (MIC's of greater than 8.0 μg/mL = D) | D (MIC's of greater than 8.0 μg/mL = D) | A (MIC's of less than 1.0 = A) | A (MIC's of 1.0 μg/mL or less = A) | A (MIC's of less than 1.0 = A) | C (MIC's of greater than 8.0 μg/mL = C) | MIC APAE 054 ([14]; Table 3): D (MIC's of greater than 8.0 μg/mL = D); MIC ASAU1033 [15]: D (MIC's of greater than 8.0 μg/mL = D); MIC AECO 066 ([16]; Table 2): C (MIC's of greater than 8.0 μg/mL = C); MIC AECO 066 ([16]; Table 3): D (MIC's of greater than 8.0 μg/mL = D); MIC ASPN1018 [17]: D (MIC's of greater than 8.0 μg/mL = D); MIC ASAU 1031 ([18]; Table 2): C (MIC's of greater than 8.0 μg/mL = C); MIC ASAU 1031 ([18]; Table 3): D (MIC's of greater than 8.0 μg/mL = D) |
| N[C@@H]1C[C@@H]2CCCc3c(c(F)cc4c(=O)c(C(=O)O)cn(C5CC5)c34)N2C1.O=C(O)C(F)(F)F [7E/49, (7aS,9R)-9-Amino-4-cyclopropyl-12-fluoro-1-oxo-4,5,6,7,7a,8,9,10-octahydro-1H-pyrrolo[1′,2′:1,7]-azepino[2,3-h]quinoline-2-carboxylic acid trifluoroacetate] | C (MIC's of greater than 8.0 μg/mL = C) | D (MIC's of greater than 8.0 μg/mL = D) | C (MIC's of greater than 8.0 μg/mL = C) | D (MIC's of greater than 8.0 μg/mL = D) | C (MIC's of greater than 8.0 μg/mL = C) | D (MIC's of greater than 8.0 μg/mL = D) | C (MIC's of 2.0 μg/mL to 8.0 μg/mL = C) | B (MIC's of greater than 1.0 μg/mL to 8.0 μg/mL = B) | C (MIC's of 2.0 μg/mL to 8.0 μg/mL = C) | C (MIC's of greater than 8.0 μg/mL = C) | D (MIC's of greater than 8.0 μg/mL = D) | D (MIC's of greater than 8.0 μg/mL = D) | C (MIC's of greater than 8.0 μg/mL = C) | D (MIC's of greater than 8.0 μg/mL = D) | D (MIC's of greater than 8.0 μg/mL = D) | D (MIC's of greater than 8.0 μg/mL = D) | D (MIC's of greater than 8.0 μg/mL = D) | C (MIC's of greater than 8.0 μg/mL = C) | D (MIC's of greater than 8.0 μg/mL = D) | C (MIC's of greater than 8.0 μg/mL = C) | MIC APAE 054 ([14]; Table 3): D (MIC's of greater than 8.0 μg/mL = D); MIC ASAU1033 [15]: D (MIC's of greater than 8.0 μg/mL = D); MIC AECO 066 ([16]; Table 2): C (MIC's of greater than 8.0 μg/mL = C); MIC AECO 066 ([16]; Table 3): D (MIC's of greater than 8.0 μg/mL = D); MIC ASPN1018 [17]: C (MIC's of 2.0 μg/mL to 8.0 μg/mL = C); MIC ASAU 1031 ([18]; Table 2): C (MIC's of greater than 8.0 μg/mL = C); MIC ASAU 1031 ([18]; Table 3): D (MIC's of greater than 8.0 μg/mL = D) |
| NC1C[C@@H]2CC=Cc3c(c(F)cc4c(=O)c(C(=O)O)cn(C5CC5)c34)N2C1.O=C(O)C(F)(F)F (stereo partly drawn) [7E/50, (7aS,9)-9-Amino-4-cyclopropyl-12-fluoro-1-oxo-4,7,7a,8,9,10-hexahydro-1H-pyrrolo[1′,2′:1,7]-azepino[2,3-h]quinoline-2-carboxylic acid trifluoroacetate] | B (MIC's of greater than 1.0 μg/mL to 8.0 μg/mL = B) | C (MIC's of 2.0 μg/mL to 8.0 μg/mL = C) | B (MIC's of greater than 1.0 μg/mL to 8.0 μg/mL = B) | C (MIC's of 2.0 μg/mL to 8.0 μg/mL = C) | C (MIC's of greater than 8.0 μg/mL = C) | D (MIC's of greater than 8.0 μg/mL = D) | C (MIC's of 2.0 μg/mL to 8.0 μg/mL = C) | C (MIC's of greater than 8.0 μg/mL = C) | D (MIC's of greater than 8.0 μg/mL = D) | B (MIC's of greater than 1.0 μg/mL to 8.0 μg/mL = B) | C (MIC's of 2.0 μg/mL to 8.0 μg/mL = C) | D (MIC's of greater than 8.0 μg/mL = D) | C (MIC's of greater than 8.0 μg/mL = C) | C (MIC's of 2.0 μg/mL to 8.0 μg/mL = C) | D (MIC's of greater than 8.0 μg/mL = D) | D (MIC's of greater than 8.0 μg/mL = D) | D (MIC's of greater than 8.0 μg/mL = D) | C (MIC's of greater than 8.0 μg/mL = C) | D (MIC's of greater than 8.0 μg/mL = D) | C (MIC's of greater than 8.0 μg/mL = C) | MIC APAE 054 ([14]; Table 3): D (MIC's of greater than 8.0 μg/mL = D); MIC ASAU1033 [15]: D (MIC's of greater than 8.0 μg/mL = D); MIC AECO 066 ([16]; Table 2): C (MIC's of greater than 8.0 μg/mL = C); MIC AECO 066 ([16]; Table 3): D (MIC's of greater than 8.0 μg/mL = D); MIC ASPN1018 [17]: C (MIC's of 2.0 μg/mL to 8.0 μg/mL = C); MIC ASAU 1031 ([18]; Table 2): C (MIC's of greater than 8.0 μg/mL = C); MIC ASAU 1031 ([18]; Table 3): D (MIC's of greater than 8.0 μg/mL = D) |

— US20120058989A1, “ANTIBACTERIAL FLUOROQUINOLONE ANALOGS” (Achaogen, Inc., priority 2008, published 2012)
